# Reference: patent US20050009894A1 (Aventis Pharma S.A., priority 2001, published 2005)
# Molecular target: T1, human KDR enzyme (Homo sapiens, UniProt P35968)
# T1 construct: The cytoplasmic domain of human KDR enzyme is cloned in the form of a GST fusion; GST; made in house; host or cells: SF21 insect cells (baculovirus, pFastBac)
# Assay: Phosphorylation of the substrate PLCγ by the enzyme KDR in vitro (flashplate technique)
# Assay type: biochemical
# Details: Table VII, degrees of activity by IC50 range; read-out: Activity
# Protocol: The inhibitory effect of the compounds is determined in a test of phosphorylation of a substrate by the enzyme KDR in vitro by the flasplate technique (96-well plate, NEN). The cytoplasmic domain of human KDR enzyme is cloned in the form of a GST fusion into the baculovirus expression vector pFastBac. The protein is expressed in the SF21 cells and purified to about 60% homogeneity.
# The kinase activity of KDR is measured in 20 mM MOPS, 10 mM MgCl2, 10 mM MnCl2, 1 mM DTT, 2.5 mM EGTA, 10 mM β-glycerophosphate, pH 7.2 in the presence of 10 mM MgCl2, 100 μM Na3VO4, 1 mM NaF. 10 μl of the compound are added to 70 μl of kinase buffer containing 100 ng of KDR enzyme at 4° C. The reaction is initiated by adding 20 μl of solution containing 2 μg of substrate (fragment SH2-SH3 of PLCγ expressed in the form of a GST fusion protein), 2 μCi γ33P[ATP] and 2 μM cold ATP. After incubating for 1 h at 37° C., the reaction is quenched by adding 1 volume (100 μl) of 200 mM EDTA. The incubation buffer is removed and the wells are washed three times with 300 μl of PBS. The radioactivity is measured in each well using a Top Count NXT instrument (Packard).
# Background noise is determined by measuring the radio-activity in wells in quadruplet containing radioactive ATP and the substrate alone.
# An activity control is measured in wells in quadruplet containing all the reagents (γ33P-[ATP], KDR and the substrate PLCγ) and in the absence of compound.
# The inhibition of the KDR activity with the compound of the invention is expressed as a percentage of inhibition of the control activity determined in the absence of compound.
# The compound SU5614 (Calbiochem) (1 μM) is included in each plate as inhibition control.
# The IC50 values for the compounds are calculated by plotting the dose-response curves. The IC50 corresponds to the concentration of compound that induces a 50% inhibition of the kinase activity.
# T1 sequence (P35968 786-1356 limits assumed): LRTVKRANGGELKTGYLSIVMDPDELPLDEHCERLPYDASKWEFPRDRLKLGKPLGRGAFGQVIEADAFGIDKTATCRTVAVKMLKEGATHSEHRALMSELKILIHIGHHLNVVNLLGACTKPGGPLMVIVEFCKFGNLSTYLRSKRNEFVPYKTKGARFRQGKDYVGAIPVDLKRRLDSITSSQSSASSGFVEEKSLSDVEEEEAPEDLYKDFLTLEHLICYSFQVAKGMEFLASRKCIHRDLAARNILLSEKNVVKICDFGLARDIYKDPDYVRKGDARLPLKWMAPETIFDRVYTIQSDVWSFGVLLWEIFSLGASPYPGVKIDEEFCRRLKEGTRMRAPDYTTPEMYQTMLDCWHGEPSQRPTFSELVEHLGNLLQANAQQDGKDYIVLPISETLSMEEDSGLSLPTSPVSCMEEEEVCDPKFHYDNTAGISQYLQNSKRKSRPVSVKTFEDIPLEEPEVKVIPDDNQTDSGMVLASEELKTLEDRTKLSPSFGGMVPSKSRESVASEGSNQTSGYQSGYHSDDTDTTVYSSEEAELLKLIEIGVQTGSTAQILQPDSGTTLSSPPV
row,IC50 [µM],SMILES
1,< 0.3,"NS(=O)(=O)c1ccc(CNC(=O)c2ccc3[nH]c(-c4n[nH]c5ccccc45)nc3c2)cc1 [Example 28, 2-(1H-Indazol-3-yl)-1H-benzoimidazole-5-carboxylic acid 4-(aminosulpnonyl)benzylamide]"
2,< 0.3,"O=C(NCc1ccc(Br)cc1)c1ccc2[nH]c(-c3n[nH]c4ccccc34)nc2c1 [Example 30, 2-(1H-Indazol-3-yl)-1H-benzoimidazole-5-carboxylic acid 4-bromo-benzylamide]"
3,< 0.3,"CS(=O)(=O)c1ccc(CNC(=O)c2ccc3[nH]c(-c4n[nH]c5ccccc45)nc3c2)cc1 [Example 31, 2-(1H-Indazol-3-yl)-1H-benzoimidazole-5-carboxylic acid 4-methanesulfonyl-benzylamide]"
4,0.3 to 3,"O=C(NCc1ccc(C(F)(F)F)cc1)c1ccc2[nH]c(-c3n[nH]c4ccccc34)nc2c1 [Example 33, 2-(1H-Indazol-3-yl)-1H-benzoimidazole-5-carboxylic acid 4-trifluoromethyl-benzylamide]"
5,0.3 to 3,"Cc1nn(C)cc1CNC(=O)c1ccc2[nH]c(-c3n[nH]c4ccccc34)nc2c1 [Example 43, 2-(1H-Indazol-3-yl)-1H-benzoimidazole-5-carboxylic acid (1,3-dimethyl-1H-pyrazol-4-ylmethyl)-amide]"

# The next lines start with the compound.
row,SMILES,IC50 [µM]
1,"CCOCCCNC(=O)c1ccc2[nH]c(-c3n[nH]c4ccccc34)nc2c1 [Example 29, 2-(1H-Indazol-3-yl)-1H-benzoimidazole-5-carboxylic acid (3-ethoxy-propyl)-amide]",0.3 to 3
2,"O=C(NCc1cccc2ccccc12)c1ccc2[nH]c(-c3n[nH]c4ccccc34)nc2c1 [Example 32, 2-(1H-Indazol-3-yl)-1H-benzoimidazole-5-carboxylic acid (naphthalen-1-ylmethyl)-amide]",0.3 to 3
3,"O=C(NCc1cccs1)c1ccc2[nH]c(-c3n[nH]c4ccccc34)nc2c1 [Example 34, 2-(1H-Indazol-3-yl)-1H-benzoimidazole-5-carboxylic acid (thiophen-2-ylmethyl)-amide]",0.3 to 3
4,"CN(C)c1ccc(CNC(=O)c2ccc3[nH]c(-c4n[nH]c5ccccc45)nc3c2)cc1 [Example 35, 2-(1H-Indazol-3-yl)-1H-benzoimidazole-5-carboxylic acid 4-dimethylamino-benzylamide]",0.3 to 3
5,"CC(C)(C)OC(=O)N1CCC(CNC(=O)c2ccc3[nH]c(-c4n[nH]c5ccccc45)nc3c2)CC1 [Example 36, 4-({[2-(1H-Indazol-3-yl)-1H-benzoimidazole-5-carbonyl]-amino}-methyl)-piperidine-1-carboxylic acid tert-butyl ester]",0.3 to 3
6,"O=C(NCc1ccc([N+](=O)[O-])cc1)c1ccc2[nH]c(-c3n[nH]c4ccccc34)nc2c1 [Example 37, 2-(1H-Indazol-3-yl)-1H-benzoimidazole-5-carboxylic acid 4-nitro-benzylamide]",< 0.3
7,"O=C(NCc1cccnc1)c1ccc2[nH]c(-c3n[nH]c4ccccc34)nc2c1 [Example 38, 2-(1H-Indazol-3-yl)-1H-benzoimidazole-5-carboxylic acid (pyridin-3-ylmethyl)-amide]",0.3 to 3
8,"O=C(NCc1cccc(Br)c1)c1ccc2[nH]c(-c3n[nH]c4ccccc34)nc2c1 [Example 39, 2-(1H-Indazol-3-yl)-1H-benzoimidazole-5-carboxylic acid 3-bromo-benzylamide]",0.3 to 3
9,"COc1cccc(CNC(=O)c2ccc3[nH]c(-c4n[nH]c5ccccc45)nc3c2)c1 [Example 40, 2-(1H-Indazol-3-yl)-1H-benzoimidazole-5-carboxylic acid 3-methoxy-benzylamide]",0.3 to 3
10,"O=C(NCc1ccc2c(c1)OCO2)c1ccc2[nH]c(-c3n[nH]c4ccccc34)nc2c1 [Example 41, 2-(1H-Indazol-3-yl)-1H-benzoimidazole-5-carboxylic acid (benzo[1,3]dioxole-5-ylmethyl)-amide]",0.3 to 3
11,"O=C(NCc1csc2ccccc12)c1ccc2[nH]c(-c3n[nH]c4ccccc34)nc2c1 [Example 42, 2-(1H-Indazol-3-yl)-1H-benzoimidazole-5-carboxylic acid (benzo[b]thiophen-3-ylmethyl)-amide]",0.3 to 3

# Same assay, conditions: product tested at 10 μM; read-out: % of inhibition of the phosphorylation of PLCγ by KDR (product tested at a concentration of 10 μM)
row,inhibition at 10 µM [%],SMILES
1,91.2,"Brc1ccc2nc(-c3n[nH]c4ccccc34)[nH]c2c1 [Example 18, 5-Bromo-2-(1H-indazol-3-yl)-3H-benzimidazole]"
2,35,"Cc1cc2nc(-c3cc(-c4cccs4)n[nH]3)[nH]c2cc1C [Example 21, 5,6-Dimethyl-2-(5-thiophen-2-yl-2H-pyrazol-3-yl)-1H-benzimidazole]"

# The next lines start with the compound.
row,SMILES,inhibition at 10 µM [%]
1,"CCNC(=O)c1ccc2[nH]c(-c3n[nH]c4ccccc34)nc2c1 [Example 3, 2-(1H-Indazol-3-yl)-1H-benzimidazole-5-carboxylic acid N-ethylamide]",91.8
2,"O=C(Nc1ccccc1)c1ccc2[nH]c(-c3n[nH]c4ccccc34)nc2c1 [Example 5, 2-(1H-Indazol-3-yl)-1H-benzimidazole-5-carboxylic acid N-phenylamide]",91.9

# Same assay, conditions: read-out: IC50 (μM) on inhibition of the phosphory-lation of PLCγ by KDR
row,IC50 [µM],SMILES
1,0.47,"O=C(NCc1ccccc1)c1ccc2nc(-c3n[nH]c4ccccc34)[nH]c2c1 [Example 1, 2-(1H-Indazol-3-yl)-1H-benzimidazole-5-carboxylic acid benzylamide]"
2,0.33,"O=C(NCCc1ccccc1)c1ccc2[nH]c(-c3n[nH]c4ccccc34)nc2c1 [Example 6, 2-(1H-Indazol-3-yl)-1H-benzimidazole-5-carboxylic acid N-phenethylamide]"
3,0.67,"CN1CCN(C(=O)c2ccc3[nH]c(-c4n[nH]c5ccccc45)nc3c2)CC1 [Example 8, 2-(1H-Indazol-3-yl)-1H-benzimidazole-5-carboxylic acid N-(N′-methyl-piperazino)amide]"
4,0.26,"O=C(NCC1CCCCC1)c1ccc2[nH]c(-c3n[nH]c4ccccc34)nc2c1 [Example 11, 2-(1H-Indazol-3-yl)-1H-benzimidazole-5-carboxylic acid N-(cyclohexylmethyl)amide]"
5,0.16,"O=C(NCc1ccco1)c1ccc2[nH]c(-c3n[nH]c4ccccc34)nc2c1 [Example 12, 2-(1H-Indazol-3-yl)-1H-benzimidazole-5-carboxylic acid N-(2-furfuryl)amide]"
6,0.61,"CN(Cc1ccccc1)C(=O)c1ccc2[nH]c(-c3n[nH]c4ccccc34)nc2c1 [Example 13, 2-(1H-Indazol-3-yl)-1H-benzimidazole-5-carboxylic acid N-benzyl-N-methylamide]"
7,2,"COc1ccc2nc(-c3n[nH]c4ccccc34)[nH]c2c1 [Example 16, 5-Methoxy-2-(1H-indazol-3-yl)-1H-benzimidazole]"

# The next lines start with the compound.
row,SMILES,IC50 [µM]
1,"CNC(=O)c1ccc2[nH]c(-c3n[nH]c4ccccc34)nc2c1 [Example 2, 2-(1H-Indazol-3-yl)-1H-benzimidazole-5-carboxylic acid N-methylamide]",0.45
2,"CC(C)NC(=O)c1ccc2[nH]c(-c3n[nH]c4ccccc34)nc2c1 [Example 4, 2-(1H-Indazol-3-yl)-1H-benzimidazole-5-carboxylic acid N-isopropylamide]",0.45
3,"O=C(c1ccc2[nH]c(-c3n[nH]c4ccccc34)nc2c1)N1CCOCC1 [Example 7, 2-(1H-Indazol-3-yl)-1H-benzimidazole-5-carboxylic acid N-morpholinoamide]",0.72
4,"O=C(c1ccc2[nH]c(-c3n[nH]c4ccccc34)nc2c1)N1CCCC1 [Example 9, 2-(1H-Indazol-3-yl)-1H-benzimidazole-5-carboxylic acid N-pyrrolidinoamide]",0.35
5,"CC(C)CNC(=O)c1ccc2[nH]c(-c3n[nH]c4ccccc34)nc2c1 [Example 10, 2-(1H-Indazol-3-yl)-1H-benzimidazole-5-carboxylic acid N-(isobutyl)amide]",0.34
6,"COC(=O)c1ccc2nc(-c3n[nH]c4ccccc34)[nH]c2c1 [Example 14, Methyl 2-(1H-indazol-3-yl)-3H-benzimidazole-5-carboxylate]",1.2
7,"Cc1cc2nc(-c3n[nH]c4ccccc34)[nH]c2cc1C [Example 15, 5,6-Dimethyl-2-(1H-indazol-3-yl)-1H-benzimidazole]",0.8
8,"Cc1cc(-c2nc3cc(C)c(C)cc3[nH]2)[nH]n1 [Example 20, 5,6-Dimethyl-2-(5-methyl-2H-pyrazol-3-yl)-1H-benzimidazole]",3.4
9,"CCc1cc(-c2nc3cc(C)c(C)cc3[nH]2)[nH]n1 [Example 23, 2-(5-Ethyl-2H-pyrazol-3-yl)-5,6-dimethyl-1H-benzimidazole]",2
